Here are results for five molecules from patent US6057450A, “Derivatives of pyroglutaminic acid preparation process and applications” (Totiam, S.L., priority 1994, dated 2000).

One data set concerns Swiss mice. As to the kind of experiment: single-dose intraperitoneal toxicity in mice. The following applies: i.p. single dose; 236 (Cl) 800 mcg/Kg, 278 (Ac) 4.2 mg/Kg, 320 (Ac) 4.8 mg/Kg, respectively.
Data set [1] concerns circulating peripheral blood leukocytes. As to the kind of experiment: in vivo leukocyte kinetics / response in asymptomatic rabbits. Also on record: species or system New Zealand's albino, giant rabbits. An excerpt: (§1) The pharmacodynamic study to assess the leuko-lymphocyte kinetics has been carried out in New Zealand's albino, giant, female, adult, asymptomatic (healthy) rabbits. The blood samples with EDTA (ethylene-diamino-tetraAcetic acid), non-coagulable, for the periodical weekly controls, have been obtained by aseptic puncture from the marginal vein of the outer ear. The count and the differential cytologic survey of the white series has been routinely performed in a "Coulter" (Coulter Cientifica, S.A., STKs model) differential analyzer, within the two hours following the extraction.
Hereinafter, there is a summary of the most significant results of the preclinical protocols which include different experimental conditions, different BRM-BLAS products and doses which vary in vary of their concentration of the product, frequency and number.
The leuko-lymphocyte mean values of the group run parallelly during the study, in general above the respective basal values before the treatment to which they return in the last two assessments. They reach the higher ones 7, 16 and 20 days after the first, second and third dose, FIG. 12, FIG. 13 and Table VIII (assessments: 3, 8 and 13).
A total number of 225 individual assessments and 45 of the group assessments have been performed, grouped in four evolutive periods moments. The "first" one includes the 40 individual assessments (8 of the group) after the two first doses, days 0 to 43rd; the "second", the 85 (17 of the group) after the third, fourth and fifth doses, days 46th to 147th; the "third", the first 50 (10 of the group) after the sixth, days 153rd to 213th, and the "fourth", the last 50 (10 of the group), days 220th to 282nd, respectively. The assessment of the group prior to the third dose (43rd day), the lymphocyte mean of which has been the lowest during the survey, has been taken as the natural reference baseline for the comparative analysis of punctual and grouped data.
This trail is subsequent to the protocol previously described and corresponds to the "fifth" moment of the global study, FIG. 14 and FIG. 15.
After the subcutaneous administration of a dose of 30 u/Kg (2.1 mcg/Kg) of the BRM-BLAS 278 (Cl) compounds 137 days after the sixth dose of the BRM-BLAS 320 (Ac) compounds, in the presence of high figures of the lymphocyte mean of the group, at the "fourth" moment, such figures were specifically exceeded by the 4th and 5th punctual weekly assessments of the "fifth" moment, 24th (184%) and 31st (180%) days, respectively, FIG. 14. Globally, 28% of the assessment exceed basal values by one or two standard deviations; 57% in three, and the difference is statistically in all of them. The resulting mean of the data gathered for the "fifth" moment with a 158% of the basal values, exceed those of the four previous moments, and the difference is statistically significant compared with those of the "first", "second" and "third", and exceeds that of the "first" in more than one standard deviation, FIG. 15 and (Table IX). […]

Data set [2] concerns circulating peripheral blood lymphocytes. As to the kind of experiment: in vivo lymphocyte kinetics / response in asymptomatic rabbits. Details: species or system New Zealand's albino, giant rabbits.
From the text: as §1
Hereinafter, there is a summary of the most significant results of the preclinical protocols which include different experimental conditions, different BRM-BLAS products and doses which vary in vary of their concentration of the product, frequency and number. […]
This study comprises three concatenated experimental situations. The first one is focused on the vicissitudes of the leuko-lymphocyte kinetics occurred during a pause, "first" moment, that takes place months after several doses, mainly of BRM-BLAS 236 (Cl) compounds and includes 30 individual assessments (6 of the group) days 0 to 39. The second "second" moment, is centered on the successive changes occurred after the administration on the 39th day of an intravenous dose of 8 u/Kg (0.6 mcg/Kg) of the BRM-BLAS 278 (Ac) compounds and includes a total of 25 individual assessments (5 of the group), days 43rd to 68th. The third one, moments "third" to "seventh", analyzes the changes induced after the intravenous administration on the 68th day of 22 u/Kg (1.8 mcg/Kg) of BRM-BLAS 320 (Ac) compounds and includes […] (6 of the group×5 times), days 75th to 287th of the study. The assessment prior to the last dose, the lymphocyte average of which is the lowest of the group during the study, has been selected as the common baseline (100%) for reference of the comparative analysis between the assessments.

In a further data set the test system is human lymphocytes. As to the kind of experiment: in vitro non-specific lymphoproliferative response (RLP-I) to PHA, human lymphocyte cultures. The format is cell-based. The following applies: for RLP-I B < A, number of witness models / RLP-I B < A, percentage of witness models / RLP-I B > A, number of witness models / RLP-I B > A, percentage of witness models: Table V, PHA + BRM-BLAS (B) versus PHA (A); for number of cases with RLP-I B > A in 33-50% of the witness models / number of cases with RLP-I B > A in 67% of the witness models / number of cases with RLP-I B > A in 100% of the witness models / percentage of cases with RLP-I B > A in 33-50% of the witness models / percentage of cases with RLP-I B > A in 67% of the witness models / percentage of cases with RLP-I B > A in 100% of the witness models: Table VI, intragroup individual analysis. As for the experimental part: The "in vitro" lymphocyte response has been assessed in samples of circulating and peripheral venous blood from asymptomatic blood donor adults of both sexes. In general, the lymphocyte cultures include in each case six experimental models called witnesses, and incorporate progressive doses between 0.25-6.0 units (20-500 ng) of the BRM-BLAS compounds and PHA. The RLP-I of each one has been morphologically determined and is expressed in absolute values of lymphoblasts/10,000.
Systematically, in all the cases it has been tabulated the RLP-I to the PHA, basal, of the PHA models; to the PHA+BRM-BLAS, of the "witness" models and the maximum individual response of the witness models (RMC), in each case.

Another data set concerns patients. The following applies: cited from earlier work; for effect on circulating granulocytes: cancer patients in the absence of a myelodepression.
Setting [3] is: three i.v. doses 5 U/Kg (300 ng/Kg) every 21 days, assessment 8, 37th day.
[4] abbreviates: three i.v. doses 5 U/Kg every 21 days.

Regarding `NC1(C[n+]2ccccc2)CC(C(=O)O)NC1=O` (centres unmarked) [BRM-BLAS 236 (Cl), 4-ammonium-4-(1-pyridiniomethyl) pyroglutamic acid dichloride], the “tolerance / toxicity, single dose” value with Swiss mice is “perfectly tolerated without evidences of toxicity”. Besides, the “highest leukocyte mean value versus basal” value in data set [1] (setting [3]) amounted to 169%. Besides, in data set [1] (setting [4]), the “assessments with leukocyte mean above basal by more than three standard deviations” value came to 5%, the “assessments with leukocyte mean above basal by more than two standard deviations” value is listed as 20%, the “assessments with leukocyte mean above basal over the standard deviation” value is recorded as 55% and the “assessments with statistically significant difference of leukocytes versus basal” value was 70%. For the same molecule, in data set [1] (setting [4]), the “leukocyte response” value was “increase in the number of leukocytes which affect granulocytes as well as lymphocytes in the same way”. Besides, in data set [1] (three i.v. doses 5 U/Kg every 21 days, first dose), the “time to higher leuko-lymphocyte mean values after first dose” value is given as 7 days. In data set [1] (three i.v. doses 5 U/Kg every 21 days, grouped results), the “leuko-lymphocyte mean of "first" period versus "fourth" period and basal” value is “practically by two standard deviations”. In addition, in data set [1] (three i.v. doses 5 U/Kg every 21 days, second dose), the “time to higher leuko-lymphocyte mean values after second dose” value is on record as 16 days. In addition, the “time to higher leuko-lymphocyte mean values after third dose” value in data set [1] (three i.v. doses 5 U/Kg every 21 days, third dose) was 20 days. Further, the “highest lymphocyte mean value versus basal” value in data set [2] (setting [3]) is 157%. Also, in data set [2] (setting [4]), the “assessments with lymphocyte mean above basal by more than three standard deviations” value was 10%, the “assessments with lymphocyte mean above basal by more than two standard deviations” value was 20%, the “assessments with lymphocyte mean above basal over the standard deviation” value came to 75% and the “assessments with statistically significant difference of lymphocytes versus basal” value was found to be 35%. Further, in the data set with human lymphocytes, the “RLP-I B < A, number of witness models” value worked out at 20 Num; the “RLP-I B < A, percentage of witness models” value (“RLP-I B < A, percentage” for short) stood at 30%; the “RLP-I B > A, number of witness models” value turned out to be 46 Num; the “RLP-I B > A, percentage of witness models” value (“RLP-I B > A, percentage” below) came to 70%. Further, in the data set with human lymphocytes, the “number of cases with RLP-I B > A in 33-50% of the witness models” value (shortened to “number … in 33-50% of the witness models”) stood at 11 Num, the “number of cases with RLP-I B > A in 67% of the witness models” value (from here on “number … in 67% of the witness models”) turned out to be 9 Num, the “number of cases with RLP-I B > A in 100% of the witness models” value (from here on “number … in 100% of the witness models”) is 2 Num and the “percentage of cases with RLP-I B > A in 33-50% of the witness models” value (shortened to “percentage … in 33-50% of the witness models”) came out at 100%. For the same molecule, in the data set on human lymphocytes, the “percentage of cases with RLP-I B > A in 67% of the witness models” value (from here on “percentage … in 67% of the witness models”) amounted to 82% and the “percentage of cases with RLP-I B > A in 100% of the witness models” value (from here on “percentage … in 100% of the witness models”) is given as 18%.

As to `CC(=O)N1C(=O)C(N)(C[n+]2ccccc2)CC1C(=O)O` (centres unmarked) [BRM-BLAS 278 (Ac), 1-acetyl-4-amino-4-(1-pyridiniomethyl) pyroglutamic acid acetate], the “tolerance / toxicity, single dose” value with Swiss mice was “perfectly tolerated without evidences of toxicity”. Moreover, the “lymphocyte group mean after low dose” value in data set [2] (single i.v. low dose 8 u/Kg (0.6 mcg/Kg), fifth assessment) is “the group mean in the fifth assessment appears in the basal line of the histogram”. Besides, in the data set on human lymphocytes, the “RLP-I B < A, number of witness models” value is 14 Num; the “RLP-I B < A, percentage” value was 26%; the “RLP-I B > A, number of witness models” value is reported as 40 Num; the “RLP-I B > A, percentage” value was determined as 74%. Moreover, in the data set with human lymphocytes, the “number … in 33-50% of the witness models” value came out at 9 Num, the “number … in 67% of the witness models” value was 6 Num, the “number … in 100% of the witness models” value amounted to 3 Num and the “percentage … in 33-50% of the witness models” value was found to be 100%. Moreover, in the data set with human lymphocytes, the “percentage … in 67% of the witness models” value stood at 67% and the “percentage … in 100% of the witness models” value was 33%.

As for `CC(=O)N1C(=O)C(N)(C[n+]2ccccc2)CC1C(=O)O` (centres unmarked) [BRM-BLAS 278 (Cl), 1-acetyl-4-ammonium-4-(1-pyridiniomethyl) pyroglutamic acid dichloride], the “animals with leukocyte mean at "fifth" exceeding "first" moment by more than two standard deviations” value in data set [1] (s.c. 30 u/Kg) is 40%. In data set [1] (s.c. 30 u/Kg, "fifth" moment), the “assessments with leukocyte mean exceeding basal by one standard deviation” value turned out to be 57% and the “assessments with statistically significant leukocyte difference” value was determined as 29%. For the same molecule, in data set [2] (s.c. 30 u/Kg), the “animals with lymphocyte mean "fifth" versus "first" moment higher than three standard deviations” value stood at 80% and the “animals with lymphocyte mean "fifth" versus "first" moment higher than two standard deviations” value came to 20%. Besides, the “grouped lymphocyte mean versus basal, "fifth" moment” value in data set [2] (s.c. 30 u/Kg, "fifth" moment) is 158%. Moreover, the “lymphocyte mean versus basal, 24th day” value in data set [2] (s.c. dose 30 u/Kg (2.1 mcg/Kg) 137 days after BRM-BLAS 320 (Ac), 24th day, "fifth" moment) is given as 184%. Further, the “lymphocyte mean versus basal, 31st day” value in data set [2] (s.c. dose 30 u/Kg (2.1 mcg/Kg) 137 days after BRM-BLAS 320 (Ac), 31st day, "fifth" moment) came out at 180%. Moreover, in the data set on human lymphocytes, the “RLP-I B < A, number of witness models” value was 16 Num; the “RLP-I B < A, percentage” value was 17%; the “RLP-I B > A, number of witness models” value is given as 77 Num; the “RLP-I B > A, percentage” value is 83%. In the data set on human lymphocytes, the “number … in 33-50% of the witness models” value stood at 16 Num, the “number … in 67% of the witness models” value is 13 Num, the “number … in 100% of the witness models” value was 6 Num and the “percentage … in 33-50% of the witness models” value was determined as 100%. Besides, in the data set on human lymphocytes, the “percentage … in 67% of the witness models” value is recorded as 81% and the “percentage … in 100% of the witness models” value came out at 37%.

In the case of “rhMG-CSF: recombinant human Macrophage Granulocyte Colony Stimulating Factor”, the “duration of the neutropenia” value in the data set on patients (administration prior to chemotherapy) is listed as “notably reduces the duration of the neutropenia”. Moreover, the “effect on circulating granulocytes” value with patients is “neutrophiles and eosinophile”. In the data set with patients (human, in vivo), the side effects result was “fever, bone ache, pericarditis, hypotension”. Also, in the data set with patients (patients who received rhMG-CSF), the deaths from sepsis is listed as 2 out of 14. Besides, in the data set on patients (severe chronic neutropenia or after transplant of bone marrow), the “systemic bacterial and viral infections” value was “drastically decreases systemic bacterial and viral infections”.

B1: rhG-CSF: recombinant human Granulocyte Colony Stimulating Factor (protein, UniProt P09919 31-207, looked up)
Granulocyte …: TPLGPASSLPQSFLLKCLEQVRKIQGDGAALQEKLVSECATYKLCHPEELVLLGHSLGIPWAPLSSCPSQALQLAGCLSQLHSGLFLYQGLLQALEGISPELGPTLDTLQLDVADFATTIWQQMEELGMAPALQPTQGAMPAFASAFQRRAGGVLVASHLQSFLEVSYRVLRHLAQP
Turning to B1, in the data set on patients, the “effect on circulating granulocytes” value was “great increase in the number of circulating (peripheral blood) polymorphonuclear neutrophile”.
